Results from patent US11667638B2, “4-substitued cytisine analogues” (The University of Bristol, priority 2016, dated 2023).
Read-outs that look alike come from different tables or passages of the source.

Columns and labels:
[1] = target: α4β2 nAChR (Homo sapiens (Human), UniProt P17787+P43681); format: binding; details: ratio of Ki values
Description: HEK 293 cells were grown in Dulbecco's modified Eagle medium supplemented with 10% fetal bovine serum, 1% L-Glutamine, 100 units/ml penicillin G, and 100 μg/streptomycin in a humidified atmosphere containing 10% CO2. The cDNAs encoding α3 and β4 or α4 and β2 (were transfected into the HEK 293 cells at 30% confluency). The cell transfections were carried out in 100 mm Petri dishes using 30 μL of JetPEI™ (Polypus, France) (1 mg/ml, pH 7.2) and 3 μg of each cDNA. After 24 h transfection, the cells were collected, washed with PBS by centrifugation, and used for binding analysis.
[^3H]-epibatidine saturation binding experiments to HEK transfected α3β4 or α4β2 receptors were performed by means of overnight incubation at 4° C. at concentrations ranging from 0.005 to 1 nM in a buffer containing 50 mM Tris-HCl, pH 7, 150 mM NaCl, 5 mM KCl, 1 mM MgCl2, 2.5 mM CaCl2 and 2 mg/ml BSA, in the presence (aspecific binding) or absence (total binding) of 100 nM cold epibatidine. Specific ligand binding was defined as total binding minus the binding in the presence of 100 nM cold epibatidine.
After incubation, the membranes of HEK cells transfected with α4β2* or α3β4 subtypes were washed by filtration on GFC filters with ice-cold PBS. The GFC filters were pre-soaked in polyethylenimine and filtered through an harvester apparatus. [^3H]-epibatidine binding was determined by means of liquid scintillation counting in a beta counter.
The ligand binding data were analyzed by means of nonlinear regression using Prism version 5 (GraphPad Software, Inc., La Jolla, Calif.). The Ki values were calculated from the experimental IC50 values using the Cheng-Prusoff equation for a single population of competitive sites: Ki=IC50/[1+(L/Kd)], where L is the concentration of radioligand used in each experiment and the Kd values were determined by saturation binding experiment. All of the assays were performed in duplicate and repeated at least two-three times.

[2] = target: α3β4 nAChRs (Homo sapiens (Human), UniProt P30926+P32297); experiment: Maximal gating efficacy on α3β4 nAChRs in Xenopus oocytes, two electrode voltage clamp; format: cell-based; details: maximal current relative to 1 mM ACh
α3β4 nAChRs, sequence (P32297 32-505): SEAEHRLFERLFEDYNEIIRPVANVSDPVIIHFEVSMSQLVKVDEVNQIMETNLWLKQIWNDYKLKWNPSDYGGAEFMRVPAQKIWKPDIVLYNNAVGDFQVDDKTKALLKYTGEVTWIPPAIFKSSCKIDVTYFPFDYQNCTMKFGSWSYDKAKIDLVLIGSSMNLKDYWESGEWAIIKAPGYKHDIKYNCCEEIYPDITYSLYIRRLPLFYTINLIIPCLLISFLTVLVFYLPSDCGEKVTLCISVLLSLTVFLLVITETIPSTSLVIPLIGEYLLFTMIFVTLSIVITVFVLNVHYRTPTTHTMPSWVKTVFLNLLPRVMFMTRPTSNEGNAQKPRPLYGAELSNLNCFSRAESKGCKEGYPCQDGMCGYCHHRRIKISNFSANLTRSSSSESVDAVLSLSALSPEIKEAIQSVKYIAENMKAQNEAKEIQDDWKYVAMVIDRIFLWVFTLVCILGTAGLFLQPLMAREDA
α3β4 nAChRs, sequence (P30926 22-498): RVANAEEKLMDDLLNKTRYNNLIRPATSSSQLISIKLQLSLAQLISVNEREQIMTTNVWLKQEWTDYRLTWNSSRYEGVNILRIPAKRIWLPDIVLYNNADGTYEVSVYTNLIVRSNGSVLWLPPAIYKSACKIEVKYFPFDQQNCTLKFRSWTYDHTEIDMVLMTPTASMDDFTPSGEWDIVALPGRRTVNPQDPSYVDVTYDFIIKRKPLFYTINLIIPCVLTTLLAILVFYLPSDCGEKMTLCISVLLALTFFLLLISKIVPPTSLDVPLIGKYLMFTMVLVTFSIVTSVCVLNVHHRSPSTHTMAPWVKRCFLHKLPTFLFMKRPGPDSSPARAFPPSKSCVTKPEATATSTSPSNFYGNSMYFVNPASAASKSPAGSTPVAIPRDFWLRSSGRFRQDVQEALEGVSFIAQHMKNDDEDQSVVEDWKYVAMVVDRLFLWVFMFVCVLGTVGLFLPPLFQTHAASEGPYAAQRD
Description: (§1) Compounds of the invention were tested for effects on the function of human α4β2, α3β4 and α7 nicotinic acetylcholine receptors (nAChRs) expressed heterologously in Xenopus oocytes. […] Expression in oocytes was obtained as follows: pCI (Promega, UK) plasmid containing human α4, β2, β4 or α7 complementary DNA were injected as previously described (Moroni et al., 2006). To express (α4)3(β2)2 nACh receptors, a mixture of 10α4:1β2 cDNAs was injected into the nucleus of oocytes, whereas for (α4)2(β2)3 receptors the cDNA ratio injected was 1α4:10β2.
(§2) Functional studies: Recordings were performed manually using a Geneclamp amplifier (Molecular Devices, USA) or using an automated HiClamp system. In both cases the oocytes were impaled with two electrodes filled with 3 M KCl and the cells were held at −60 mV throughout the experiments.
(§3) Oocyte isolation and two-electrode voltage-clamp recordings on oocytes were carried out as previously described (Moroni et al., 2006; Carbone et al., 2009). […] A minimum interval of 5 min was allowed between agonist applications to ensure reproducible recordings. Oocytes were exposed to increasing concentrations of the compounds until no further increases in the response amplitude were obtained. This concentration was taken as the concentration that causes maximal responses on the receptors tested. The data summarised in Tables 1-4 were obtained from at least 5 experiments carried out on oocytes obtained from at least three different donors.
Maximal gating efficacy of the compounds on α3β4 nAChRs: The concentration of the compounds causing maximal activation of α3β4 nAChRs expressed heterologously in Xenopus oocytes was determined using two electrode voltage clamping.

[3] = target: α7 nAChRs (Homo sapiens (Human), UniProt P36544); format: cell-based; details: compounds at 100 μM, relative to 1 mM ACh
α7 nAChRs, sequence (P36544 23-502): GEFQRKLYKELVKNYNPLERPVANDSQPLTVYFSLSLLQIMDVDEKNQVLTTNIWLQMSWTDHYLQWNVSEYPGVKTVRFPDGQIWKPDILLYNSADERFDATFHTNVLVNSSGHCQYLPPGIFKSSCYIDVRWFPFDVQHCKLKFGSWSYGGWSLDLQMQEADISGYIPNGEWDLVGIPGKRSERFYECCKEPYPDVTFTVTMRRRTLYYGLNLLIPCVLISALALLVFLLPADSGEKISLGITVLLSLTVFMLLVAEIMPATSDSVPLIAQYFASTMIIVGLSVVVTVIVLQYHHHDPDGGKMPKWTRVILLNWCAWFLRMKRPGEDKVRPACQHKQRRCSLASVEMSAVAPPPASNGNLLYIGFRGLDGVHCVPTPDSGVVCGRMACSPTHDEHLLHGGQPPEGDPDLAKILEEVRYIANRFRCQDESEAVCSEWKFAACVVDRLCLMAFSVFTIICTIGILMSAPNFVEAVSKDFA
Description: as §1, §2, §3

[4] = target: (α4)2(β2)3 nAChRs (Homo sapiens (Human), UniProt P17787+P43681); experiment: Maximal gating efficacy on (α4)2(β2)3 nAChRs in Xenopus oocytes, two electrode voltage clamp; format: cell-based
(α4)2(β2)3 nAChRs, sequence (P43681 29-627): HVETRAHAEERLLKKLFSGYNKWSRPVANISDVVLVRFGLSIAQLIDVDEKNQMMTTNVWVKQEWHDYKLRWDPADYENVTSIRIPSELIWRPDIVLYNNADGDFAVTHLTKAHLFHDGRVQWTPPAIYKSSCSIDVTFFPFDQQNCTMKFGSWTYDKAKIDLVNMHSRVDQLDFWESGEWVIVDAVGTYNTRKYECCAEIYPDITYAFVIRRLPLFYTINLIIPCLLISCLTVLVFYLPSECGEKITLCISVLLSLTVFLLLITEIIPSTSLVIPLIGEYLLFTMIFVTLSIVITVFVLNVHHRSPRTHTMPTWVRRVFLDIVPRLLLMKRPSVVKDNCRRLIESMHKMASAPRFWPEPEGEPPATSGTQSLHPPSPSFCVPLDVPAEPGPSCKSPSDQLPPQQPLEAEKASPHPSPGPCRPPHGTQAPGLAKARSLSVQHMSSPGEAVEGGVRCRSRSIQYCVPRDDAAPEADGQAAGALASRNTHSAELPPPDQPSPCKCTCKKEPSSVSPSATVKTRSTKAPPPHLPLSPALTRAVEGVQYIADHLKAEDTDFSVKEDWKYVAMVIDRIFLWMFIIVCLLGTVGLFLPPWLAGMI
(α4)2(β2)3 nAChRs, sequence (P17787 26-502): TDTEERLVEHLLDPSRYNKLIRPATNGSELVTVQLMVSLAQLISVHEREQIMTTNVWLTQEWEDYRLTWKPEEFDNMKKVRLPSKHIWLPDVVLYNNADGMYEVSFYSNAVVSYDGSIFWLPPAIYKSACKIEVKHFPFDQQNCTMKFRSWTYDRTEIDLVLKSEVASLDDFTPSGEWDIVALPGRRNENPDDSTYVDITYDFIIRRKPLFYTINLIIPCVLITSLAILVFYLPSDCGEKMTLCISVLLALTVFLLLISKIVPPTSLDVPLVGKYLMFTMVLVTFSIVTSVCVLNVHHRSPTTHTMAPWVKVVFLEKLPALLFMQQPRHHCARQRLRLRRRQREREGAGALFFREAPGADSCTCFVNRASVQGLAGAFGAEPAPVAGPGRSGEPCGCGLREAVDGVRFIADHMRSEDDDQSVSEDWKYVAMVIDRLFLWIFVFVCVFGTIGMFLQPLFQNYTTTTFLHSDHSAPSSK
Description: as §1, §2, §3
Maximal gating efficacy of compounds on (α4)2(β2)3 receptors (high sensitivity receptors): The concentration of the compounds causing maximal activation of the (α4)2(β2)3 nAChRs expressed heterologously in Xenopus oocytes was determined using two electrode voltage clamping.

[5] = target: (α4)3(β2)2 nAChRs (Homo sapiens (Human), UniProt P17787+P43681); experiment: Maximal gating efficacy on (α4)3(β2)2 nAChRs in Xenopus oocytes, two electrode voltage clamp; format: cell-based
(α4)3(β2)2 nAChRs, sequence (P43681 29-627): as the sequence (P43681 29-627) above
(α4)3(β2)2 nAChRs, sequence (P17787 26-502): as the sequence (P17787 26-502) above
Description: as §1, §2, §3
Maximal gating efficacy of the compounds: The concentration of the compounds of the invention causing maximal activation of the (α4)3(β2)2 nAChRs expressed heterologously in Xenopus oocytes was determined using two electrode voltage clamping.

[6] = (α4)2(β2)3, high sensitivity receptors, maximal current relative to 1 mM ACh
[7] = (α4)3(β2)2, low sensitivity stoichiometry, maximal current relative to 1 mM ACh

α4β2 nAChR, sequence (P43681 29-627 limits assumed): as the sequence (P43681 29-627) above
α4β2 nAChR, sequence (P17787 26-502 limits assumed): as the sequence (P17787 26-502) above

Compound: O=c1cc(O)cc2n1CC1CNC[C@@H]2C1 (single isomer, unassigned; (+)) [Compound 67, (+)4-Hydroxycytisine]
- Ratio α3β4/α4β2 [1]: 397.8
- Relative efficacy (ACh) [2]: 0.047 ± 0.036
- Relative efficacy (ACh) [3]: No response at 100 μM
- Relative efficacy (ACh) [4, 6]: 0.005 ± 0.0001
- Relative efficacy (ACh) [5, 7]: 0.07 ± 0.009

Compound: Cc1ccc(-c2cc3n(c(=O)c2)CC2CNC[C@@H]3C2)cc1 (single isomer, unassigned; (+)) [Compound 73, (+)4-p-Tolylcytisine]
- Ratio α3β4/α4β2 [1]: 161.7
- Relative efficacy (ACh) [2]: 0.076 ± 0.093
- Relative efficacy (ACh) [3]: 0.0027 ± 0.0021
- Relative efficacy (ACh) [4]: 0.030 ± 0.013
- Relative efficacy (ACh) [5]: 0.017 ± 0.019

Compound: CC(=O)Nc1cc2n(c(=O)c1)CC1CNC[C@@H]2C1.Cl (single isomer, unassigned; (+)) [Compound 94, (+)4-(N-acetylamino)cytisine]
- Ratio α3β4/α4β2 [1]: 751.0
- Relative efficacy (ACh) [2]: 0.055 ± 0.047
- Relative efficacy (ACh) [3]: 0.0001 ± 0.00001
- Relative efficacy (ACh) [4, 6]: 0.001 ± 0.0006
- Relative efficacy (ACh) [5, 7]: 0.153 ± 0.006

Compound: O=c1cc(Cl)cc2n1CC1CNC[C@@H]2C1 (single isomer, unassigned; (-)) [Compound 60, (−)4-Chlorocytisine]
- Ratio α3β4/α4β2 [1]: 328.6
- Relative efficacy (ACh) [2]: 0.133 ± 0.017
- Relative efficacy (ACh) [3]: 0.38 ± 0.09
- Relative efficacy (ACh) [4, 6]: 0.01 ± 0.007
- Relative efficacy (ACh) [5, 7]: 0.110 ± 0.08

Compound: O=c1cc(Br)cc2n1CC1CNC[C@@H]2C1 (single isomer, unassigned; (-)) [Compound 62, (−)4-Bromocytisine]
- Ratio α3β4/α4β2 [1]: 303.4
- Relative efficacy (ACh) [2]: 0.184 ± 0.046
- Relative efficacy (ACh) [3]: 0.28 ± 0.01
- Relative efficacy (ACh) [4, 6]: 0.009 ± 0.0001
- Relative efficacy (ACh) [5, 7]: 0.057 ± 0.007

Compound: COc1cc2n(c(=O)c1)CC1CNC[C@@H]2C1 (single isomer, unassigned; (-)) [Compound 69, (−)4-Methoxycytisine]
- Ratio α3β4/α4β2 [1]: 206.1
- Relative efficacy (ACh) [2]: 0.044 ± 0.059
- Relative efficacy (ACh) [3]: 0.061 ± 0.09
- Relative efficacy (ACh) [4, 6]: 0.009 ± 0.0008
- Relative efficacy (ACh) [5, 7]: 0.071 ± 0.009

Compound: Cl.O=c1cc(-c2c(F)c(F)c(F)c(F)c2F)cc2n1CC1CNC[C@@H]2C1 (single isomer, unassigned; (-)) [Compound 75, (−)4-(Perfluorophenyl)cytisine]
- Ratio α3β4/α4β2 [1]: 8.1
- Relative efficacy (ACh) [2]: 0.120 ± 0.039
- Relative efficacy (ACh) [3]: 0.0007 ± 0.0006
- Relative efficacy (ACh) [4, 6]: 0.050 ± 0.071
- Relative efficacy (ACh) [5, 7]: 0.011 ± 0.010

Compound: O=c1cc(-c2ccccn2)cc2n1CC1CNC[C@@H]2C1 (single isomer, unassigned; (-)) [Compound 101, (−)4-(2-Pyridinyl)cytisine]
- Ratio α3β4/α4β2 [1]: 1575.0
- Relative efficacy (ACh) [2]: 0.066 ± 0.056
- Relative efficacy (ACh) [3]: 0.16 ± 0.03
- Relative efficacy (ACh) [4, 6]: 0.0001 ± 0.00008
- Relative efficacy (ACh) [5, 7]: 0.009 ± 0.008

Compound: O=c1cc(-c2ccncc2)cc2n1CC1CNC[C@@H]2C1 (single isomer, unassigned; (-)) [Compound 103, (−)4-(4-Pyridinyl)cytisine]
- Ratio α3β4/α4β2 [1]: 859.6
- Relative efficacy (ACh) [2]: 0.016 ± 0.010
- Relative efficacy (ACh) [3]: 0.07 ± 0.009
- Relative efficacy (ACh) [4, 6]: 0.0067 ± 0.0006
- Relative efficacy (ACh) [5, 7]: 0.023 ± 0.006
